Data published in a melting point compilation (Tetko et al.).

melting point	SMILES
95 to 99 °C	O=C1CCc2c(Br)cccc21
65 to 67 °C	CC(=O)NC1CCCNC1 (stereo unspecified)
180 to 183 °C	COc1ccc(N(C(C)=O)c2nc(C=O)cs2)cc1
106 to 108 °C	CC(C)(C)OC(=O)NCc1nnc(S)o1
59 to 61 °C	O=C1CSCc2c(F)cccc21
106 to 110 °C	O=C(O)CCc1ccc(C(F)(F)F)cc1
151 to 153 °C	FC(F)(F)c1cccc(-c2ncc[nH]2)c1
60 to 62 °C	O=C(CC1CCOCC1)c1ccccc1
118 to 120 °C	CC(=O)c1c(C)oc2nc(Br)nn12
99 to 103 °C	O=S(=O)(c1ccc(Cl)cc1)N1CCNCC1
223 to 225 °C	CSc1nc(C)nc(C)c1C(=O)O
84 to 86 °C	O=C(O)CCc1nnc(-c2ccccc2I)o1
69 to 71 °C	O=C(O)CCc1cc(Cl)cs1
75 to 77 °C	O=S(=O)(Cl)c1csc(-c2ccc(F)cc2)n1
87 to 89 °C	Fc1cccc(-n2ccnc2)n1
61 to 63 °C	N#Cc1cccc(-n2cccn2)c1
104 to 106 °C	O=C(O)c1ccnc(SCC(F)(F)F)c1
99 to 101 °C	O=C(NCc1ccccc1)c1ccnc(Cl)c1
135 to 137 °C	NS(=O)(=O)c1ccccc1O
256 to 258 °C	O=C(O)c1cc(=O)n(-c2ccccc2)[nH]1
145 to 147 °C	COc1ccc(S(=O)(=O)N2CCNCC2)cc1OC
72 to 74 °C	CCC(Oc1cccc(C)c1)C(=O)O (stereo unspecified)
164 to 166 °C	NS(=O)(=O)c1ccc2c(c1)NCCC2
160 to 162 °C	COCCS(=O)(=O)c1ccc(C(=O)O)cc1

melting point	SMILES
163 to 165 °C	O=C(O)C1CCCN(C(=O)Nc2ccccc2)C1 (stereo unspecified)
207 to 209 °C	O=C(O)c1cc2cc(F)ccc2s1
76 to 78 °C	O=C(O)CCCOc1ccccc1F
179 to 181 °C	COc1ccc(-c2cc3ncnc(Cl)c3s2)cc1
274 to 276 °C	O=C(O)c1cc(NCc2ccccc2)ccn1
228 to 230 °C	NNC(=O)c1ccc(-n2cnnn2)cc1
134 to 136 °C	NC(=O)NCc1cccc(F)c1
131 to 133 °C	CC(C)N1N=C(C(=O)O)CCC1=O
157 to 159 °C	COc1ccc(C(CNC(=O)CCl)c2c[nH]c3ccccc23)cc1 (stereo unspecified)
84 to 86 °C	Cc1nn(C)c2ncc(N)cc12
127 to 129 °C	COc1ccccc1CC(N)=O
50 to 52 °C	CCC(C)C(C(=O)O)c1ccccc1 (stereo unspecified)
103 to 105 °C	Oc1ccccc1CNc1ccc(F)cc1
163 to 165 °C	Cn1c(N)nc2c(F)cccc21
213 to 215 °C	CCOC(=O)c1sc2ncc(C(=O)OC)cc2c1N
300 to 302 °C	O=C(O)/C=C/c1ccc(-n2ccnc2)cc1
192 to 194 °C	O=Cc1ccc(N2CCNC(=O)C2)cc1
148 to 150 °C	CCNC(=O)c1ccc(I)cc1
94 to 96 °C	O=C1C(Br)CCN1c1ccc(Cl)c(F)c1 (stereo unspecified)
168 to 170 °C	Cc1ccc(CNC(=O)c2c[nH]nc2N)cc1
210 to 212 °C	COc1ccc(C(=O)/C=C2\NC(=O)CS2)cc1
127 to 129 °C	NCc1noc(-c2ccsc2)n1
66 to 68 °C	CCOc1ccc(OC(C)(C)C(=O)O)cc1
169 to 171 °C	COc1ccc(C(N)=O)cc1F

melting point	SMILES
201 to 203 °C	O=C(O)c1ccc(Cl)c(S(=O)(=O)N(Cc2ccccc2)c2cccc(C(F)(F)F)c2)c1
124 to 126 °C	O=C(CCl)NCC(=O)c1ccccc1
78 to 80 °C	CC(NC(=O)OC(C)(C)C)c1ccc(CN)cc1 (stereo unspecified)
82 to 84 °C	COc1ccccc1NC(=O)CCCCC(=O)O
109 to 111 °C	Cc1ccc(NC(=O)OC(C)(C)C)cc1O
134 to 136 °C	Nc1cc(N2CCCS2(=O)=O)ccc1O
221 to 223 °C	O=C(O)C1CCCN(S(=O)(=O)c2ccc([N+](=O)[O-])cc2)C1 (stereo unspecified)
40 to 42 °C	COC(=O)N1CCC(N)CC1
169 to 171 °C	O=C(O)c1ccc(SC2CCOC2=O)cc1 (stereo unspecified)
129 to 131 °C	Cc1cc(C)c(C)c(OCCC(=O)O)c1
60 to 62 °C	COC(=O)CCCN1C(=O)NC(C)(C)C1=O
34 to 36 °C	O=C(O)C1C2CCCC21 (stereo unspecified)
103 to 105 °C	Cc1cc(C)c(C(=O)O)c(N)c1
194 to 196 °C	CC(C)(C)c1cc(N)n(-c2ncccn2)n1
160 to 162 °C	COC(=O)/C=C/c1cc(OC)c(OC)c(S(=O)(=O)Cl)c1
124 to 126 °C	CCN(CC)S(=O)(=O)c1ccc(N)c(N)c1
114 to 116 °C	CCc1ccc2c(c1)C(=O)C(=O)N2
75 to 77 °C	Nc1ccccc1CN1CCc2ccccc21
177 to 179 °C	Cc1ccc(C(=O)c2c(N)sc3c2CCC3)cc1F
112 to 114 °C	CC(C)Cc1ccc(C(=O)c2cccs2)cc1
229 to 231 °C	Cc1nc2c([nH]1)CCC(C(=O)O)C2 (stereo unspecified)
53 to 55 °C	c1cc2c(cn1)ncn2C1CC1
199 to 201 °C	Cc1ccc(S)nc1
91 to 93 °C	O=C(c1ccccc1)c1cc(Cl)ccc1Cl

melting point	SMILES
139 to 141 °C	NS(=O)(=O)Cc1ccc(F)cc1F
228 to 229 °C	Cn1c(=O)c2ccccc2n2c(CCl)nnc12
116 to 118 °C	CCOc1ccc(CC(CN)C(N)=O)cc1 (stereo unspecified)
152 to 154 °C	COCCC(NC(C)=O)C(=O)O (stereo unspecified)
95 to 97 °C	N#CCc1nc2cc(C(F)(F)F)ccc2s1
75 to 77 °C	CC(N)c1ccc(OCC(=O)NC2CC2)cc1 (stereo unspecified)
149 to 151 °C	CC(C)(C)OC(=O)NC1CCCCC1(C)C(=O)O (stereo unspecified)
157 to 159 °C	S=C(NCc1cccnc1)NCc1cccnc1
131 to 133 °C	O=C(O)c1ccccc1C(=O)N1CCCC1
105 to 107 °C	O=C(O)Cc1cnn(-c2ccccc2)n1
53 to 55 °C	CCS(=O)(=O)c1ccc(Br)cc1
35 to 37 °C	O=C(NCCCN1CCCC1=O)OCC(F)(F)F
179 to 182 °C	NC(=O)Nc1ccc(CC(=O)O)cc1
165 to 167 °C	CC(C)(C(=O)O)c1ccc(N)cc1
107 to 109 °C	CS(=O)c1c(N)cccc1Cl (stereo unspecified)
155 to 159 °C	CC(C)OC(=O)c1cccc(-c2nn[nH]n2)c1
71 to 73 °C	O=C(O)CCc1cc(F)ccc1F
118 to 120 °C	Cc1cc(Cl)c([N+](=O)[O-])cc1N
109 to 111 °C	Cc1c(C(=O)O)cc(Cl)cc1S(=O)(=O)Cl
177 to 179 °C	NS(=O)(=O)c1ccc(OCC(=O)O)c(F)c1
173 to 175 °C	NS(=O)(=O)c1cccc2c1OCCO2
91 to 93 °C	NNC(=O)C1CCC1
211 to 213 °C	Nc1ncc(C=NO)s1
120 to 122 °C	Cc1ccc(OC(C)C(=O)O)c(Br)c1 (stereo unspecified)

melting point	SMILES
53 to 55 °C	Clc1cncc(N2CCCC2)n1
169 to 171 °C	COc1ccccc1-n1c(C)nnc1SCC(=O)O
122 to 124 °C	O=C(CCCl)N(c1ccccc1)C1C=CS(=O)(=O)C1 (stereo unspecified)
127 to 129 °C	Cc1n[nH]c(C)c1C1COCCN1 (stereo unspecified)
206 to 208 °C	NC(=O)c1cccc(OCC(=O)O)c1
194 to 196 °C	CNc1ccc(Cl)nn1
84 to 86 °C	NC(=S)Cc1ccccc1
222 to 224 °C	CCOc1ccc(-c2csc(=O)[nH]2)cc1
106 to 108 °C	CCn1c(=O)cc(N)n(Cc2ccccc2)c1=O
89 to 91 °C	COc1nc(Cl)nc(Cl)n1
109 to 111 °C	COC(=O)c1c(NC(=O)OC(C)(C)C)c[nH]c1C
117 to 119 °C	O=C(O)c1cc(F)ccc1-c1ccccc1
211 to 213 °C	N#Cc1ccccc1COc1ccc(C(=O)O)cc1
184 to 186 °C	COC(=O)c1sc(N)nc1C1CC1
88 to 90 °C	CCc1nnc(-c2cccc(N)c2)o1
69 to 71 °C	CCOc1ccc(N)c(C(F)(F)F)c1
216 to 218 °C	Cc1cccc2cc(C(=O)O)oc12
56 to 58 °C	COC(=O)c1cccc(OCC(F)(F)F)c1
151 to 153 °C	CCn1nccc1C=CC(=O)O
217 to 219 °C	Cc1nc([N+](=O)[O-])cn1CCC(=O)O
179 to 181 °C	COc1cc(Cl)c(C(=O)O)cc1OC
135 to 137 °C	Nc1nc(-c2ccccn2)cs1
104 to 106 °C	CC(C)(C)OC(=O)Nc1csc(Br)n1
185 to 187 °C	COc1ccccc1C(NC(=O)OC(C)(C)C)C(N)=NO (stereo unspecified)

melting point	SMILES
74 to 76 °C	COC(=O)C(CCl)NC(C)=O (stereo unspecified)
< 17 °C	COc1ccc(Cn2nccc2N)cc1OC
135 to 137 °C	N#CC1(NC(=O)c2ccccc2)CCCCC1
142 to 144 °C	OCc1cn(-c2ccc(Cl)c(Cl)c2)nn1
194 to 196 °C	NS(=O)(=O)c1ccc(C(=O)O)nc1
124 to 126 °C	Nc1cc(-c2cc3ccccc3o2)n[nH]1
239 to 241 °C	O=C(O)c1cccc(Nc2cnccn2)c1
69 to 71 °C	CN(C)C(=O)Cc1ccccc1N
84 to 86 °C	NCC(O)COc1cccc(F)c1 (stereo unspecified)
196 to 198 °C	CC(=O)NC1(C(=O)O)CCCCCC1
236 to 238 °C	NC(=O)c1c(NC(=O)CCl)sc2c1CCCC2
289 to 291 °C	NC(=O)c1cnn2c3c(cnc12)CCOC3=O
131 to 133 °C	NNC(=O)CSc1ccccc1F
230 to 232 °C	O=C(O)c1cccc(CN2CCS(=O)(=O)CC2)c1
397 to 399 °C	O=C(O)c1ccc2c(=O)n(-c3ccc(F)cc3)c(=O)[nH]c2c1
152 to 154 °C	CCc1cc(N)c2ccccc2n1
150 to 152 °C	Cc1[nH]ncc1CNc1ccc(O)cc1
220 to 222 °C	Nc1cc(S(N)(=O)=O)ccc1S
119 to 121 °C	CC(C)(C)OC(=O)NNC(=O)C(F)(F)F
88 to 90 °C	NCc1cnn(-c2cccc(Cl)c2)c1
99 to 101 °C	CC(C)c1nn(-c2ccc(Br)cc2)cc1C=O
118 to 120 °C	CCN(CC)C(=O)c1ccc(N)cc1
63 to 65 °C	ClCc1ncc(-c2ccccc2)o1
118 to 120 °C	O=C(CCl)Nc1ccc(OCc2ccccc2)cc1

SMILES	melting point
ClCc1nc(-c2nc[nH]n2)no1	187 to 189 °C
O=C(CCl)Nc1cccc(Cl)c1	70 to 72 °C
